# According to PubChem BioAssay AID1845208 (Molecular Pharmacology Branch, DTP, NCI, 2023):
# pIC50: −log10 of the molar value. Several values for one entry are separate records, joined by “and”; a condition that tells them apart may be missing. Equal entries are not always repeated.
# System: NCI-H196 SCLC complex tumor spheroid viability
# Experiment: Anticancer human tumor NCI-H196 cell line growth inhibition;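 note: spheroids exposed to compounds for 7 days before readout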;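 for viability, T/C: 100% = DMSO vehicle control wells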
# Settings: for viability, T/C: stronger effect = lower value
# Outline: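 Single agents and combinations were tested on spheroids built from tumor cells plus HUVEC and hMSC, at half-log dilutions starting at or near clinical Cmax, else 10 microM; final DMSO 0.25% (v/v).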
compound,measurement,setting,value
Cn1ncnc1[C@H]1c2n[nH]c(=O)c3cc(F)cc(c23)N[C@@H]1c1ccc(F)cc1,"viability, T/C",compound 0.00949 µM,108% and 104% and 101%
same,"viability, T/C",compound 0.03 µM,102% and 96.7% and 99%
same,"viability, T/C",compound 0.0949 µM,103% and 98.2% and 102%
same,"viability, T/C",compound 0.3 µM,102% and 98.1% and 100%
same,"viability, T/C",compound 0.949 µM,104% and 96.5% and 89.3%
same,"viability, T/C",compound 3 µM,108% and 92% and 87.2%
same,pIC50,curve of compound,< 5.52
CNCc1ccc(-c2cc(-c3nc(-c4ccc(S(=O)(=O)C(C)C)cc4)cnc3N)on2)cc1,"viability, T/C",compound 0.00949 µM,101% and 97.8% and 106%
same,"viability, T/C",compound 0.03 µM,108% and 111% and 109%
same,"viability, T/C",compound 0.0949 µM,98% and 119% and 105%
same,"viability, T/C",compound 0.3 µM,106% and 107% and 101%
same,"viability, T/C",compound 0.949 µM,95% and 98.1% and 96.3%
same,"viability, T/C",compound 3 µM,88.5% and 83.7% and 94%
same,pIC50,curve of compound,< 5.52
CC[C@@]1(O)C(=O)OCc2c1cc1n(c2=O)Cc2cc3c(CN(C)C)c(O)ccc3nc2-1,"viability, T/C",compound 0.003 µM,101% [middle of 10 runs]
same,"viability, T/C",compound 0.00949 µM,99.5% [middle of 10 runs]
same,"viability, T/C",compound 0.03 µM,95.5% [middle of 10 runs]
same,"viability, T/C",compound 0.0949 µM,102% [middle of 10 runs]
same,"viability, T/C",compound 0.3 µM,105% [middle of 10 runs]
same,pIC50,"compound alone, run of 11/07/2019",< 6.52
same,pIC50,"compound alone, run of 12/16/2019",< 6.52
CNCc1ccc(-c2cc(-c3nc(-c4ccc(S(=O)(=O)C(C)C)cc4)cnc3N)on2)cc1 + COc1cc2c(cc1O)CCNC21CSC2c3c(OC(C)=O)c(C)c4c(c3C(COC1=O)N1C(O)C3Cc5cc(C)c(OC)c(O)c5C(C21)N3C)OCO4,pIC50,"curve of first compound, second compound 30 pM",< 5.52
same,pIC50,"curve of first compound, second compound 94.9 pM",< 5.52
same,pIC50,"curve of first compound, second compound 0.0003 µM",< 5.52
same,pIC50,"curve of first compound, second compound 0.000949 µM",< 5.52
same,pIC50,"curve of first compound, second compound 0.003 µM",> 8.02
same,"viability, T/C","second compound 30 pM, first compound 0.00949 µM",107%
same,"viability, T/C","second compound 30 pM, first compound 0.03 µM",99%
same,"viability, T/C","second compound 30 pM, first compound 0.0949 µM",104%
same,"viability, T/C","second compound 30 pM, first compound 0.3 µM",103%
same,"viability, T/C","second compound 30 pM, first compound 0.949 µM",98%
same,"viability, T/C","second compound 30 pM, first compound 3 µM",91.4%
same,"viability, T/C","second compound 94.9 pM, first compound 0.00949 µM",105%
same,"viability, T/C","second compound 94.9 pM, first compound 0.03 µM",107%
same,"viability, T/C","second compound 94.9 pM, first compound 0.0949 µM",103%
same,"viability, T/C","second compound 94.9 pM, first compound 0.3 µM",107%
same,"viability, T/C","second compound 94.9 pM, first compound 0.949 µM",96.4%
same,"viability, T/C","second compound 94.9 pM, first compound 3 µM",95.9%
same,"viability, T/C","second compound 0.0003 µM, first compound 0.00949 µM",112%
same,"viability, T/C","second compound 0.0003 µM, first compound 0.03 µM",112%
same,"viability, T/C","second compound 0.0003 µM, first compound 0.0949 µM",112%
same,"viability, T/C","second compound 0.0003 µM, first compound 0.3 µM",105%
same,"viability, T/C","second compound 0.0003 µM, first compound 0.949 µM",96.4%
same,"viability, T/C","second compound 0.0003 µM, first compound 3 µM",93.3%
same,"viability, T/C","second compound 0.000949 µM, first compound 0.00949 µM",99.2%
same,"viability, T/C","second compound 0.000949 µM, first compound 0.03 µM",103%
same,"viability, T/C","second compound 0.000949 µM, first compound 0.0949 µM",103%
same,"viability, T/C","second compound 0.000949 µM, first compound 0.3 µM",94.3%
same,"viability, T/C","second compound 0.000949 µM, first compound 0.949 µM",91.3%
same,"viability, T/C","second compound 0.000949 µM, first compound 3 µM",86.6%
same,"viability, T/C","second compound 0.003 µM, first compound 0.00949 µM",9.83%
same,"viability, T/C","second compound 0.003 µM, first compound 0.03 µM",26.7%
same,"viability, T/C","second compound 0.003 µM, first compound 0.0949 µM",27.7%
same,"viability, T/C","second compound 0.003 µM, first compound 0.3 µM",13.2%
same,"viability, T/C","second compound 0.003 µM, first compound 0.949 µM",18.2%
same,"viability, T/C","second compound 0.003 µM, first compound 3 µM",40.3%
